Measured values published in patent US20150148377A1, “Quinoline Derivatives” (NOVARTIS AG, priority 2011, published 2015).

What was measured:
[1] = target: T1, PI3K alpha (Homo sapiens, UniProt P42336); test: Enzymatic PI3K alpha isoform inhibition (lipid kinase activity, Kinase-Glo); type: biochemical; conditions: enzymatic assay
T1 construct: His tag (C); made in house; host or cells: baculovirus; Tn5 (Trichoplusia ni) or TiniPro insect cells
Experimental: The kinase reaction is performed in a final volume of 50 μl per well of a half area COSTAR, 96 well plate. The final concentrations of ATP and phosphatidyl inositol in the assay are 5 μM and 6 μg/mL, respectively. The reaction is started by the addition of PI3 kinase, e.g. PI3 kinase δ.
(§1) In a more preferred assay, the kinase reaction is performed in a final volume of 10 μl per well of a low volume non-binding CORNING, 384 well black plate (Cat. No. #3676). The final concentrations of ATP and phosphatidyl inositol (PI) in the assay are 1 μM and 10 μg/mL, respectively. The reaction is started by the addition of ATP.
(§2) The components of the assay are added per well as follows:
(§3) 50 nl test compounds in 90% DMSO per well, in columns 1-20, 8 concentrations (1/3 and 1/3.33 serial dilution step) in single. • Low control: 50 nl of 90% DMSO in half the wells of columns 23-24 (0.45% in final). • High control: 50 nl of reference compound (e.g. compound of Example 7 in WO 2006/122806) in the other half of columns 23-24 (2.5 μM in final). • Standard: 50 nl of reference compound as just mentioned diluted as the test compounds in columns 21-22. • 20 mL ‘buffer’ are prepared per assay: • 200 μl of 1M TRIS HCl pH7.5 (10 mM in final) • 60 μl of 1M MgCl2 (3 mM in final) • 500 μl of 2M NaCl (50 mM in final) • 100 μl of 10% CHAPS (0.05% in final) • 200 μl of 100 mM DTT (1 mM in final) • 18.94 mL of nanopure water • 10 mL ‘PI’ are prepared per assay: • 200 μl of 1 mg/mL 1-alpha-Phosphatidylinositol (Liver Bovine, Avanti Polar Lipids Cat. No. 840042C MW=909.12) prepared in 3% OctylGlucoside (10 μg/mL in final) • 9.8 mL of ‘buffer’ • 10 mL ‘ATP’ are prepared per assay: • 6.7 μl of 3 mM stock of ATP giving a final concentration of 1 μM per well • 10 mL of ‘buffer’ • 2.5 mL of each PI3K construct are prepared per assay in ‘PI’ with the following final concentration: • 10 nM PI3K alfa EMV B1075 • 25 nM beta EMV BV949 • 10 nM delta EMV BV1060 • 150 nM gamma EMV BV950 • 5 μl of ‘PI/PI3K’ are added per well. • 5 μl ‘ATP’ are added per well to start the reaction. • The plates are then incubated at room temperature for 60 minutes (alfa, beta, delta) or 120 minutes (gamma). • The reaction is terminated by the addition of 10 μl Kinase-Glo (Promega Cat. No. #6714). • The assay plates are read after 10 minutes in Synergy 2 reader (BioTek, Vermont USA) with an integration time of 100 milliseconds and sensitivity set to 191. • Output: The High control is around 60'000 counts and the Low control is 30'000 or lower • This luminescence assay gives a useful Z′ ratio between 0.4 and 0.7
(§4) IC50 is determined by a four parameter curve fitting routine that comes along with “excel fit”. A four parameter logistic equation is used to calculate IC50 values (IDBS XLfit) of the percentage inhibition of each compound at 8 concentrations (usually 10, 3.0, 1.0, 0.3, 0.1, 0.030, 0.010 and 0.003 μM). Alternatively, IC50 values are calculated using idbsXLfit model 204, which is a 4 parameter logistic model.
(§5) Yet alternatively, for an ATP depletion assay, compounds of the formula I to be tested are dissolved in DMSO and directly distributed into a white 384-well plate at 0.5 μl per well. To start the reaction, 10 μl of 10 nM PI3 kinase and 5 μg/mL 1-alpha-phosphatidylinositol (PI) are added into each well followed by 10 μl of 2 μM ATP. The reaction is performed until approx 50% of the ATP is depleted, and then stopped by the addition of 20 μl of Kinase-Glo solution (Promega Corp., Madison, Wis., USA). The stopped reaction is incubated for 5 minutes and the remaining ATP is then detected via luminescence. IC50 values are then determined.

[2] = target: T2, PI3K delta (Homo sapiens, UniProt O00329); test: Enzymatic PI3K delta isoform inhibition (lipid kinase activity, Kinase-Glo); type: biochemical; conditions: enzymatic assay
T2 construct: for the full-length p110-d subunit are generated and fused by overlapping PCR; His tag (C); made in house; host or cells: baculovirus; Tn5 (Trichoplusia ni) or TiniPro insect cells
Experimental: as §1, §2, §3, §4, §5

T2 sequence (O00329 with tags, fused parts or gaps limits assumed): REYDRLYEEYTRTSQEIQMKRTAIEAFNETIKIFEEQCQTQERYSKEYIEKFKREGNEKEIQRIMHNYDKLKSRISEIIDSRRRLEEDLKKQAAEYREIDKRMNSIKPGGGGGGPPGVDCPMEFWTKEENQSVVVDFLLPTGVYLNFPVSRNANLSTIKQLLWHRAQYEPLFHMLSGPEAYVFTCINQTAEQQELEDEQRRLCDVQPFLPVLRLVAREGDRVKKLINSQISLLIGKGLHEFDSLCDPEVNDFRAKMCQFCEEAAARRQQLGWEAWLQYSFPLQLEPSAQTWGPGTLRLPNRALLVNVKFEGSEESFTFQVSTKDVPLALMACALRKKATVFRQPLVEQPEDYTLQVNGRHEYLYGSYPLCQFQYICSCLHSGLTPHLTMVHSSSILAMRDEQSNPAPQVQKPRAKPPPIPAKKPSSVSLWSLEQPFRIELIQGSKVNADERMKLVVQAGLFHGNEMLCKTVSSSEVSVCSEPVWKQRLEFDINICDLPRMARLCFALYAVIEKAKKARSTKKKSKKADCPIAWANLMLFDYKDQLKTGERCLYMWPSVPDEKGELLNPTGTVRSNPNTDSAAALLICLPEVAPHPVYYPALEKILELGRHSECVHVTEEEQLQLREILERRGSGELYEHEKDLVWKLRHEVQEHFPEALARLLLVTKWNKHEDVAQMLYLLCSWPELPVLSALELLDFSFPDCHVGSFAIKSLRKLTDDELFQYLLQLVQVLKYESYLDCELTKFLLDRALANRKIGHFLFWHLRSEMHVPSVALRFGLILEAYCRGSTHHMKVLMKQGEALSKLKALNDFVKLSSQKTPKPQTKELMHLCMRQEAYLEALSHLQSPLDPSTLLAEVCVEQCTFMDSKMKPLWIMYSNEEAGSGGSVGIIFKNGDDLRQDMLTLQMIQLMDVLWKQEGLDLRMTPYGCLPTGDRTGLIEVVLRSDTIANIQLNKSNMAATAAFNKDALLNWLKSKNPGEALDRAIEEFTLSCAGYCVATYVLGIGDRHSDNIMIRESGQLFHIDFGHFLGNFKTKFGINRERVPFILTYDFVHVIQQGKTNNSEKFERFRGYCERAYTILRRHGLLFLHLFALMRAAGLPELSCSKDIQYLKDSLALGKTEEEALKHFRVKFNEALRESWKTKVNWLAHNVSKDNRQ
T1 sequence (P42336 with tags, fused parts or gaps limits assumed): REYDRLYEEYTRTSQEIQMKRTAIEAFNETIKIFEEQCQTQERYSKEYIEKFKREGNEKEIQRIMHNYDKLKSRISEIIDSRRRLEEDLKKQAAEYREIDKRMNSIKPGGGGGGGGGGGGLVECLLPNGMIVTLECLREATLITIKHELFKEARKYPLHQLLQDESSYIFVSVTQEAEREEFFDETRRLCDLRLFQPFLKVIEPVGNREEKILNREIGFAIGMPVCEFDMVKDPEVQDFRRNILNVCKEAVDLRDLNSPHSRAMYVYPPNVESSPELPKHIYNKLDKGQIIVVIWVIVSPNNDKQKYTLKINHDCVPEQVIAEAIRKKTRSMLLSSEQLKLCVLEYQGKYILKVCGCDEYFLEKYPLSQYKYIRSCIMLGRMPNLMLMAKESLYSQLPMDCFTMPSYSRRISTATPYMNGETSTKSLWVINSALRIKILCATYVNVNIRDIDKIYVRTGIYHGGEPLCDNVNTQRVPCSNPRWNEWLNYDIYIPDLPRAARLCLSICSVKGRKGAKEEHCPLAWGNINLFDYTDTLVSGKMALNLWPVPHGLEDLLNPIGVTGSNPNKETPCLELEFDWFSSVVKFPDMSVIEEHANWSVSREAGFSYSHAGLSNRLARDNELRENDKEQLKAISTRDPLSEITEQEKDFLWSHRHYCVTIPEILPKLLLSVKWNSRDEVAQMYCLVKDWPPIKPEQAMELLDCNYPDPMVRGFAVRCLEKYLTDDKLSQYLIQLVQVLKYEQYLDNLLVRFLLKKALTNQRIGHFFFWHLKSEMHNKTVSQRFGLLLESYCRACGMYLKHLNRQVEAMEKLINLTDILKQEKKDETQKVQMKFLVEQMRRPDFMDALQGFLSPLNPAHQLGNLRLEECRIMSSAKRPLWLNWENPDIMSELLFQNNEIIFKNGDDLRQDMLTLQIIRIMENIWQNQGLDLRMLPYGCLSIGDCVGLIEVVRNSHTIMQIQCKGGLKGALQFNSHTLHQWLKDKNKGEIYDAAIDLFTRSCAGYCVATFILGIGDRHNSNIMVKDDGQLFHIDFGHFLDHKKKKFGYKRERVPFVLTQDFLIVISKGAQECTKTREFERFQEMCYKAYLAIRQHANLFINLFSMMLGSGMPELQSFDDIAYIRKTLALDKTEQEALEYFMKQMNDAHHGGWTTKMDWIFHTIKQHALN

Compound	IC50 [1]	IC50 [2]
COc1ncc(-c2ccnc3ccc(O[C@H]4CCN(C(=O)c5ccc(=O)[nH]c5)C4)cc23)cc1C(F)(F)F [Example A19, 5-{(S)-3-[4-(6-Methoxy-5-trifluoromethyl-pyridin-3-yl)-quinolin-6-yloxy]-pyrrolidine-1-carbonyl}-1H-pyridin-2-one]	85 nM	7 nM
CC(=O)N1CC[C@@H](C(=O)N2CC[C@H](Oc3ccc4nccc(-c5cnc(OC(F)F)c(C)c5)c4c3C)C2)C1 [Example B7, 1-((R)-3-{(S)-3-[4-(6-Difluoromethoxy-5-methyl-pyridin-3-yl)-5-methyl-quinolin-6-yloxy]-pyrrolidine-1-carbonyl}-pyrrolidin-1-yl)-ethanone]	869 nM	20 nM
COc1ncc(-c2ccnc3ccc(O[C@H]4CCN(C(=O)c5ccc(=O)[nH]c5)C4)c(C)c23)cc1C(F)F [Example B2, 5-{(S)-3-[4-(5-Difluoromethyl-6-methoxy-pyridin-3-yl)-5-methyl-quinolin-6-yloxy]-pyrrolidine-1-carbonyl}-1H-pyridin-2-one]	33 nM	4 nM
CCC(=O)N1CC[C@H](Oc2ccc3nccc(-c4cnc(OC)c(C)c4)c3c2)C1 [Example A2, 1-{(S)-3-[4-(6-Methoxy-5-methyl-pyridin-3-yl)-quinolin-6-yloxy]-pyrrolidin-1-yl}-propan-1-one]	264 nM	< 3 nM
COc1ncc(-c2ccnc3ccc(O[C@H]4CCN(C(=O)C5CCS(=O)(=O)CC5)C4)c(C)c23)cc1CF [Example B6, (1,1-Dioxo-hexahydro-1lambda*6*-thiopyran-4-yl)-{(S)-3-[4-(5-fluoromethyl-6-methoxy-pyridin-3-yl)-5-methyl-quinolin-6-yloxy]-pyrrolidin-1-yl}-methanone]	294 nM	12 nM

The next lines start with the values.

IC50 [1]	IC50 [2]	Compound
3370 nM	25 nM	Cc1cc(-c2ccnc3ccc(O[C@H]4CCN(C(=O)C5CCOCC5)C4)cc23)cnc1S(C)(=O)=O [Example A33, {(S)-3-[4-(6-Methanesulfonyl-5-methyl-pyridin-3-yl)-quinolin-6-yloxy]-pyrrolidin-1-yl}-(tetrahydro-pyran-4-yl)-methanone]
96 nM	4 nM	COc1ncc(-c2ccnc3ccc(O[C@H]4CCN(C(=O)C5CCOCC5)C4)cc23)cc1C(F)(F)F [Example A7, {(S)-3-[4-(6-Methoxy-5-trifluoromethyl-pyridin-3-yl)-quinolin-6-yloxy]-pyrrolidin-1-yl}-(tetrahydro-pyran-4-yl)-methanone]
172 nM	4 nM	COc1ncc(-c2ccnc3ccc(O[C@H]4CCN(C(=O)C5CCS(=O)(=O)CC5)C4)cc23)cc1CF [Example A9, (1,1-Dioxo-hexahydro-1lambda*6*-thiopyran-4-yl)-{(S)-3-[4-(5-fluoromethyl-6-methoxy-pyridin-3-yl)-quinolin-6-yloxy]-pyrrolidin-1-yl}-methanone]
426 nM	3 nM	COc1ncc(-c2ccnc3ccc(O[C@H]4CCN(C(=O)C5CCOCC5)C4)cc23)cc1C#N [Example A3, 2-Methoxy-5-{6-[(S)-1-(tetrahydro-pyran-4-carbonyl)-pyrrolidin-3-yloxy]-quinolin-4-yl}-nicotinonitrile]
128 nM	3 nM	COc1ncc(-c2ccnc3ccc(O[C@H]4CCN(C(=O)C5CCS(=O)(=O)CC5)C4)cc23)cc1F [Example A4, (1,1-Dioxo-hexahydro-1lambda*6*-thiopyran-4-yl)-{(S)-3-[4-(5-fluoro-6-methoxy-pyridin-3-yl)-quinolin-6-yloxy]-pyrrolidin-1-yl}-methanone]
341 nM	7 nM	CS(=O)(=O)c1ncc(-c2ccnc3ccc(O[C@H]4CCN(C(=O)C5CCOCC5)C4)cc23)cc1C(F)F [Example A17, {(S)-3-[4-(5-Difluoromethyl-6-methanesulfonyl-pyridin-3-yl)-quinolin-6-yloxy]-pyrrolidin-1-yl}-(tetrahydro-pyran-4-yl)-methanone]
